{"source": "paper PMC8921294", "about": "“Inhibition of mitochondrial LonP1 protease by allosteric blockade of ATP binding and hydrolysis via CDDO and its derivatives” (The Journal of Biological Chemistry, 2022)", "key": {"LonP1 C576V": {"molecular_target": "T1, LonP1 C576V (Homo sapiens, UniProt P36776, C576V)", "T1 construct": "hexa-histidine (N); made in house; host or cells: Rosetta 2 E. coli", "T1 sequence (P36776 68-959 C576V)": "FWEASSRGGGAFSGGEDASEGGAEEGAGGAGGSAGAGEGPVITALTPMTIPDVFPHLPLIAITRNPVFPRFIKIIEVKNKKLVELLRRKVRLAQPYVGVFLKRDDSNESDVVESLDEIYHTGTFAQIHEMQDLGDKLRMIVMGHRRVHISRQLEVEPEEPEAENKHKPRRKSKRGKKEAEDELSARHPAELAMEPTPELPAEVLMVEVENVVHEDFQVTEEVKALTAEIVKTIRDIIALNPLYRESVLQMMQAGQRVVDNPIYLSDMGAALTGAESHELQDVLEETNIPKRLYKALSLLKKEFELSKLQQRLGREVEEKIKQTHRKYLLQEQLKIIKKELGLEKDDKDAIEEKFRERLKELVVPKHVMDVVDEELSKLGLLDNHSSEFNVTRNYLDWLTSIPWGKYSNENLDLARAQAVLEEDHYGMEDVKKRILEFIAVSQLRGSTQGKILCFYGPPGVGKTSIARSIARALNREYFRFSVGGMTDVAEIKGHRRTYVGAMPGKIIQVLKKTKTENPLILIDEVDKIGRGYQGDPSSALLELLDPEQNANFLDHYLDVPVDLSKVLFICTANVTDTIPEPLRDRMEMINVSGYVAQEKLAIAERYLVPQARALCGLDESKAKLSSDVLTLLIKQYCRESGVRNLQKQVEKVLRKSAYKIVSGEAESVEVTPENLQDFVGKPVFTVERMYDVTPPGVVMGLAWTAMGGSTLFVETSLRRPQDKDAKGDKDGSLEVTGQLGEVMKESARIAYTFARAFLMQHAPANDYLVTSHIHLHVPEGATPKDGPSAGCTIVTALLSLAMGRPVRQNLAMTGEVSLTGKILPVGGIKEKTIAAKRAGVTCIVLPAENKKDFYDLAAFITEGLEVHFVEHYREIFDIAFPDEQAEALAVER", "assay": "Endpoint ATPase assay, LonP1 C576V", "type": "biochemical", "experimental": "(§1) Human mitochondrial LonP1 and mutants lacking the predicted mitochondrial targeting sequence were fused to an N-terminal hexa-histidine affinity tag, expressed in Rosetta 2 E. Coli, and purified using a nickel agarose column as previously described ([72]) and protein concentration and buffer exchange carried out using Amicon Ultra centrifugal filtration. LonP1 mutant constructs were obtained from the PCR-based QuikChange Site-Directed Mutagenesis Kit.\n(§2) ADP-Glo (Promega) assays were performed according to the manufacturer's protocols. Purified wild-type or mutant LonP1 (400 nM monomer), the 26S proteasome (3 nM), or no enzyme controls were preincubated in 96-well plates (60 min, 25 °C) with ten different concentrations of CDDO and its derivatives, TP-82, enoxolone (5 μM) or DMSO vehicle control in buffer (40 mM Tris-HCl (pH 7.5), 20 mM MgCl2, 0.1 mg/ml BSA and 5% DMSO). The 26S and 20S proteasome were also assayed at 0, 0.75, 1.5, 3, 6, and 12 nM in the absence of CDDO derivatives. […] Assay reagents were used to quench further ATPase activity and generate luminescence signals proportional to the concentration of ADP formed. Background (no enzyme control) luminescence values were subtracted, and resultant values were reported as a percentage of the no drug control (100%). […]"}, "LonP1 F547A/C576V": {"molecular_target": "T2, LonP1 F547A/C576V (Homo sapiens, UniProt P36776, C576V/F547A)", "T2 construct": "hexa-histidine (N); made in house; host or cells: Rosetta 2 E. coli", "T2 sequence (P36776 68-959 F547A/C576V)": "T1 sequence (P36776 68-959 C576V) with F480A", "assay": "Endpoint ATPase assay, LonP1 F547A/C576V", "type": "biochemical", "experimental": "as §1, §2"}, "[1]": {"details": "end-point ATPase assay, read-out: CDDO IC50"}}, "note": "Substitutions are numbered along the chain they refer to."}
{"molecule": "CC1(C)CC[C@]2(C(=O)O)CC[C@]3(C)[C@H](C(=O)C=C4[C@@]5(C)C=C(C#N)C(=O)C(C)(C)[C@@H]5CC[C@]43C)[C@@H]2C1", "note": "[CDDO, 2-cyano-3,12-dioxooleana-1,9(11)-dien-28-oic acid]", "values": [{"measurement": "Fold increase in inhibition compared with WT", "setting": "LonP1 C576V", "result": 2.7}, {"measurement": "IC50", "setting": "LonP1 C576V; [1]", "result": "5.2 ± 1.5", "unit": "µM"}, {"measurement": "Fold increase in inhibition compared with WT", "setting": "LonP1 F547A/C576V", "result": 7.8}, {"measurement": "IC50", "setting": "LonP1 F547A/C576V; [1]", "result": "1.8 ± 0.8", "unit": "µM"}]}
